Source: US20210207064A1, “COMPOUND FOR RESTORING CONTAMINATED SOIL OR CONTAMINATED WATER” (FNG RESEARCH CO., LTD., priority 2018, published 2021)

Tests used:
[1] = Heavy metal removal ability test in contaminated soil (ICP-MS), cadmium; conditions: for Cadmium (Cd) Adsorption amount: contaminated soil; for Cadmium (Cd) Adsorption rate: relative to EDTA control
Method: (§1) (1) Preparation of Soil Contaminated with Heavy Metal
(§2) After collecting and pulverizing uncontaminated soil, fine particles obtained by using a mesh were mixed with the aqueous heavy metal solution to prepare soil samples contaminated with heavy metals.
(§3) Each 3 ml of the prepared aqueous solution was added to a soil sample contaminated with heavy metals and mixed for 5 minutes.
(§4) 50 ml of distilled water was added to the contaminated soil mixed with the aqueous solution for restoring soil, stirred for 20 minutes, and settled for 1 hour, and a supernatant was prepared as a sample solution.
(§5) The prepared sample solution was analyzed for the heavy metal component using an Inductively Coupled Plasma Mass Spectrometer (ICP-MS) (Xseries™ 2, Thermo Fisher Scientific, UK).
(§6) Adsorption rate of heavy metals (%)=(Adsorption amount of Embodiment/Adsorption amount of Control)×100 Equation 1

human skin = assay: Skin irritation test of active ingredient (patch method, CTFA guidelines); format: in vivo; conditions: 24 h patch; for Test result (number of subject) (+) / Test result (number of subject) (++) / Test result (number of subject) (±) / Test result (number of subject) (−): 20 people; for Test result (number of subject) (+): (+) apparent reddening; for Test result (number of subject) (++): (++) more reddened and swollen; for Test result (number of subject) (±): (±) slightly reddish; for Test result (number of subject) (−): (−) no erythema
Method: A filter paper disk was placed in an 8 mm diameter, 10 panels of pin chamber.
After 24 hours, the pin chamber was removed, and skin conditions were visually observed. The degree and grade for skin irritation were calculated according to the following Equation 2, and the results are shown in Table 4 below.
[Criteria for Skin Irritation]
(−): No erythema or particularly no symptoms; (±): slightly reddish than the periphery; (+): Apparent reddening than periphery; (++): More reddened and swollen than periphery.
[Grade for Skin Irritation]
Degree of irritation 0-0.1: Grade I (unstimulated);
Degree of irritation 0.11-0.3: Grade II (weakly stimulated);
Degree of irritation 0.31-0.5: Grade III (moderately stimulated);
Degree of irritation 0.51 or more: Grade IV (strongly stimulated)

[2] = Formaldehyde (formalin) removing ability test (GC); conditions: 2.0% formaldehyde solution, 3 molar equivalents of compound, room temperature; for Formaldehyde GC Area, 30 min: after 30 min; for Formaldehyde GC Area, 180 min: after 180 min; for Formaldehyde GC Area, Initial: initial state
[3] = Heavy metal removal ability test in contaminated soil (ICP-MS), nickel; conditions: for Nickel (Ni) Adsorption amount: contaminated soil; for Nickel (Ni) Adsorption rate: relative to EDTA control
Method: as §1, §2, §3, §4, §5, §6

[4] = Heavy metal removal ability test in contaminated soil around a factory (WAK-Me test kit); conditions: 1.0 wt % aqueous solution, colour comparison test kit
Method: The contaminated soil around the factory in the industrial complex was collected, pulverized, and meshed to prepare fine particles of soil samples.
Each 3 ml of aqueous solutions for restoring soil was added to soil samples and mixed for 5 minutes.

[5] = Heavy metal removal ability test in contaminated soil (ICP-MS), arsenic; conditions: for Arsenic (As) Adsorption amount: contaminated soil; for Arsenic (As) Adsorption rate: relative to EDTA control
Method: as §1, §2, §3, §4, §5, §6

SMILES	Cadmium (Cd) Adsorption amount ([1]; content 0.5% aqueous solution)	Cadmium (Cd) Adsorption rate ([1]; content 0.5%)	Cadmium (Cd) Adsorption amount ([1]; content 1.0% aqueous solution)	Cadmium (Cd) Adsorption rate ([1]; content 1.0%)	Cadmium (Cd) Adsorption amount ([1]; content 2.0% aqueous solution)	Cadmium (Cd) Adsorption rate ([1]; content 2.0%)	Test result (number of subject) (+) (human skin; content 0.1 wt %)	Test result (number of subject) (++) (human skin; content 0.1 wt %)	Test result (number of subject) (±) (human skin; content 0.1 wt %)	Test result (number of subject) (−) (human skin; content 0.1 wt %)	Degree of irritation (human skin; content 0.1 wt %)	Grade for skin irritation (human skin; content 0.1 wt %)	Test result (number of subject) (+) (human skin; content 0.5 wt %)	Test result (number of subject) (++) (human skin; content 0.5 wt %)	Test result (number of subject) (±) (human skin; content 0.5 wt %)	Test result (number of subject) (−) (human skin; content 0.5 wt %)	Degree of irritation (human skin; content 0.5 wt %)	Grade for skin irritation (human skin; content 0.5 wt %)	Test result (number of subject) (+) (human skin; content 1.0 wt %)	Test result (number of subject) (++) (human skin; content 1.0 wt %)	also measured
O=C(O)c1ccc(N(CCN(CCN(c2ccc(C(=O)O)o2)c2ccc(C(=O)O)o2)c2ccc(C(=O)O)o2)CCN(c2ccc(C(=O)O)o2)c2ccc(C(=O)O)o2)o1 [Embodiment 4, 5,5′,5″,5′″-(((ethane-1,2-diylbis((5-carboxyfuran-2-yl)azanediyl))bis(ethane-2,1-diyl))bis(azanetriyl))tetrakis(furan-2-carboxylic Acid)]	67 ppm	163%	74 ppm	180%	80 ppm	195%	0	0	0	20	0	I (Degree of irritation 0-0.1: Grade I (unstimulated))	0	0	0	20	0	I (Degree of irritation 0-0.1: Grade I (unstimulated))	0	0	Test result (number of subject) (±) (human skin; content 1.0 wt %): 1; Test result (number of subject) (−) (human skin; content 1.0 wt %): 19; Degree of irritation (human skin; content 1.0 wt %): 0.05; Grade for skin irritation (human skin; content 1.0 wt %): I (Degree of irritation 0-0.1: Grade I (unstimulated)); Formaldehyde GC Area, 30 min [2]: 0.173 mAU*min; Formaldehyde GC Area, 180 min [2]: 0 mAU*min; Formaldehyde GC Area, Initial [2]: 0.305 mAU*min; Nickel (Ni) Adsorption amount ([3]; content 0.5% aqueous solution): 91 ppm; Nickel (Ni) Adsorption rate ([3]; content 0.5%): 186%; Nickel (Ni) Adsorption amount ([3]; content 1.0% aqueous solution): 94 ppm; Nickel (Ni) Adsorption rate ([3]; content 1.0%): 192%; Nickel (Ni) Adsorption amount ([3]; content 2.0% aqueous solution): 104 ppm; Nickel (Ni) Adsorption rate ([3]; content 2.0%): 212%; Total amount (Cu, Zn, Mn, Ni, Cd) [4]: ≤5 ppm; Arsenic (As) Adsorption amount ([5]; content 0.5% aqueous solution): 53 ppm; Arsenic (As) Adsorption rate ([5]; content 0.5%): 212%; Arsenic (As) Adsorption amount ([5]; content 1.0% aqueous solution): 56 ppm; Arsenic (As) Adsorption rate ([5]; content 1.0%): 224%; Arsenic (As) Adsorption amount ([5]; content 2.0% aqueous solution): 56 ppm; Arsenic (As) Adsorption rate ([5]; content 2.0%): 224%
O=C(O)CN1CCN(CC(=O)O)CCN(CC(=O)O)CCN(CC(=O)O)CC1 [Embodiment 5, 2,2′,2″,2′″-(1,4,7,10-tetraazacyclododecane-1,4,7,10-tetrayl)tetraacetic Acid]	60 ppm	146%	66 ppm	161%	74 ppm	180%	0	0	0	20	0	I (Degree of irritation 0-0.1: Grade I (unstimulated))	0	0	0	20	0	I (Degree of irritation 0-0.1: Grade I (unstimulated))	0	0	Test result (number of subject) (±) (human skin; content 1.0 wt %): 1; Test result (number of subject) (−) (human skin; content 1.0 wt %): 19; Degree of irritation (human skin; content 1.0 wt %): 0.05; Grade for skin irritation (human skin; content 1.0 wt %): I (Degree of irritation 0-0.1: Grade I (unstimulated)); Formaldehyde GC Area, 30 min [2]: 0.179 mAU*min; Formaldehyde GC Area, 180 min [2]: 0 mAU*min; Formaldehyde GC Area, Initial [2]: 0.305 mAU*min; Nickel (Ni) Adsorption amount ([3]; content 0.5% aqueous solution): 83 ppm; Nickel (Ni) Adsorption rate ([3]; content 0.5%): 169%; Nickel (Ni) Adsorption amount ([3]; content 1.0% aqueous solution): 85 ppm; Nickel (Ni) Adsorption rate ([3]; content 1.0%): 173%; Nickel (Ni) Adsorption amount ([3]; content 2.0% aqueous solution): 89 ppm; Nickel (Ni) Adsorption rate ([3]; content 2.0%): 182%; Total amount (Cu, Zn, Mn, Ni, Cd) [4]: ≤5 ppm; Arsenic (As) Adsorption amount ([5]; content 0.5% aqueous solution): 41 ppm; Arsenic (As) Adsorption rate ([5]; content 0.5%): 164%; Arsenic (As) Adsorption amount ([5]; content 1.0% aqueous solution): 46 ppm; Arsenic (As) Adsorption rate ([5]; content 1.0%): 184%; Arsenic (As) Adsorption amount ([5]; content 2.0% aqueous solution): 53 ppm; Arsenic (As) Adsorption rate ([5]; content 2.0%): 212%
O=C(O)c1ccc(N2CCN(c3ccc(C(=O)O)cc3)CCN(c3ccc(C(=O)O)cc3)CCN(c3ccc(C(=O)O)cc3)CC2)cc1 [Embodiment 6, 4,4′,4″,4′″-(1,4,7,10-tetraazacyclododecane-1,4,7,10-tetrayl)tetrabenzoic Acid]	61 ppm	149%	69 ppm	168%	77 ppm	188%	0	0	0	20	0	I (Degree of irritation 0-0.1: Grade I (unstimulated))	0	0	0	20	0	I (Degree of irritation 0-0.1: Grade I (unstimulated))	0	0	Test result (number of subject) (±) (human skin; content 1.0 wt %): 1; Test result (number of subject) (−) (human skin; content 1.0 wt %): 19; Degree of irritation (human skin; content 1.0 wt %): 0.05; Grade for skin irritation (human skin; content 1.0 wt %): I (Degree of irritation 0-0.1: Grade I (unstimulated)); Formaldehyde GC Area, 30 min [2]: 0.183 mAU*min; Formaldehyde GC Area, 180 min [2]: 0 mAU*min; Formaldehyde GC Area, Initial [2]: 0.305 mAU*min; Nickel (Ni) Adsorption amount ([3]; content 0.5% aqueous solution): 81 ppm; Nickel (Ni) Adsorption rate ([3]; content 0.5%): 165%; Nickel (Ni) Adsorption amount ([3]; content 1.0% aqueous solution): 83 ppm; Nickel (Ni) Adsorption rate ([3]; content 1.0%): 169%; Nickel (Ni) Adsorption amount ([3]; content 2.0% aqueous solution): 87 ppm; Nickel (Ni) Adsorption rate ([3]; content 2.0%): 178%; Total amount (Cu, Zn, Mn, Ni, Cd) [4]: ≤5 ppm; Arsenic (As) Adsorption amount ([5]; content 0.5% aqueous solution): 42 ppm; Arsenic (As) Adsorption rate ([5]; content 0.5%): 168%; Arsenic (As) Adsorption amount ([5]; content 1.0% aqueous solution): 45 ppm; Arsenic (As) Adsorption rate ([5]; content 1.0%): 180%; Arsenic (As) Adsorption amount ([5]; content 2.0% aqueous solution): 48 ppm; Arsenic (As) Adsorption rate ([5]; content 2.0%): 192%
O=C(O)c1cncc(N2CCN(c3cncc(C(=O)O)c3)CCN(c3cncc(C(=O)O)c3)CCN(c3cncc(C(=O)O)c3)CC2)c1 [Embodiment 7, 5,5′,5″,5′″-(1,4,7,10-tetraazacyclododecane-1,4,7,10-tetrayl)tetranicotinic Acid]	62 ppm	151%	72 ppm	176%	76 ppm	185%	0	0	0	20	0	I (Degree of irritation 0-0.1: Grade I (unstimulated))	0	0	0	20	0	I (Degree of irritation 0-0.1: Grade I (unstimulated))	0	0	Test result (number of subject) (±) (human skin; content 1.0 wt %): 0; Test result (number of subject) (−) (human skin; content 1.0 wt %): 20; Degree of irritation (human skin; content 1.0 wt %): 0; Grade for skin irritation (human skin; content 1.0 wt %): I (Degree of irritation 0-0.1: Grade I (unstimulated)); Formaldehyde GC Area, 30 min [2]: 0.181 mAU*min; Formaldehyde GC Area, 180 min [2]: 0 mAU*min; Formaldehyde GC Area, Initial [2]: 0.305 mAU*min; Nickel (Ni) Adsorption amount ([3]; content 0.5% aqueous solution): 92 ppm; Nickel (Ni) Adsorption rate ([3]; content 0.5%): 188%; Nickel (Ni) Adsorption amount ([3]; content 1.0% aqueous solution): 97 ppm; Nickel (Ni) Adsorption rate ([3]; content 1.0%): 198%; Nickel (Ni) Adsorption amount ([3]; content 2.0% aqueous solution): 102 ppm; Nickel (Ni) Adsorption rate ([3]; content 2.0%): 208%; Total amount (Cu, Zn, Mn, Ni, Cd) [4]: ≤5 ppm; Arsenic (As) Adsorption amount ([5]; content 0.5% aqueous solution): 41 ppm; Arsenic (As) Adsorption rate ([5]; content 0.5%): 164%; Arsenic (As) Adsorption amount ([5]; content 1.0% aqueous solution): 45 ppm; Arsenic (As) Adsorption rate ([5]; content 1.0%): 180%; Arsenic (As) Adsorption amount ([5]; content 2.0% aqueous solution): 51 ppm; Arsenic (As) Adsorption rate ([5]; content 2.0%): 204%
